Laboratory results published in ChEMBL document CHEMBL5344430, “Targeting the Translocator Protein (18 kDa) in Cardiac Diseases: State of the Art and Future Opportunities” (J Med Chem, 2024).

Key:
[1] = physchem; details: buffer, pH 7.4
Description: Lipophilicity, logD of compound at pH 7.4 by HPLC analysis

[2] = Lipophilicity, logD of the compound at pH 7.4; format: physicochemical; details: buffer
[3] = target: T1, Translocator protein (Homo sapiens, UniProt P30536)
Description: Binding affinity to human mitochondrial TSPO

[4] = target: Translocator protein (Rattus norvegicus, UniProt P16257)
Description: Binding affinity to rat TSPO receptor assessed as inhibition constant

[5] = target: T1, Translocator protein; remark: listed apart in the source
Description: Binding affinity to human TSPO assessed as inhibition constant

[6] = target: Albumin (Macaca fascicularis, UniProt A2V9Z4)
Chain of Albumin (A2V9Z4 whole entry): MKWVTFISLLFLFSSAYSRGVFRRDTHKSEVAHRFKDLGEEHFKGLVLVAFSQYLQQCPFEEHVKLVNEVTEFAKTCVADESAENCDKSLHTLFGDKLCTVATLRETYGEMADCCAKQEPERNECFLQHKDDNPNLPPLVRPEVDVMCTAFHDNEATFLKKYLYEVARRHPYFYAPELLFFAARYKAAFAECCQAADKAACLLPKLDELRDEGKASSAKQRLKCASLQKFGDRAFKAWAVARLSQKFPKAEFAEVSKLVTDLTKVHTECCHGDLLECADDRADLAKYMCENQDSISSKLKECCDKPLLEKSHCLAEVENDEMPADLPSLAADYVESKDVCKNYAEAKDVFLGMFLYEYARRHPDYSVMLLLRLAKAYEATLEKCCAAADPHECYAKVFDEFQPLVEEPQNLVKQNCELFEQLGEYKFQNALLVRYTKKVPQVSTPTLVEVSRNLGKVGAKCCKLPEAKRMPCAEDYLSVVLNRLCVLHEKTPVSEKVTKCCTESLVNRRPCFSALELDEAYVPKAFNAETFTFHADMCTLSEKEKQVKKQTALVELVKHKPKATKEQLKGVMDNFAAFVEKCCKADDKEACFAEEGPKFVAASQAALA
Description: Binding affinity to monkey albumin

[7] = physchem; details: buffer, pH 6.8
Description: Lipophilicity, logD of compound at pH 6.8

T1 sequence (P30536 whole entry): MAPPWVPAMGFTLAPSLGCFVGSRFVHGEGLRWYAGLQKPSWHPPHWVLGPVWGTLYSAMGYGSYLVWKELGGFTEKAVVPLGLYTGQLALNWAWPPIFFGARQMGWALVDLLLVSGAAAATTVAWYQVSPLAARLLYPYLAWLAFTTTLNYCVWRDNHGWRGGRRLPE
Chain of Translocator protein (Rattus norvegicus, UniProt P16257) (P16257 whole entry, looked up): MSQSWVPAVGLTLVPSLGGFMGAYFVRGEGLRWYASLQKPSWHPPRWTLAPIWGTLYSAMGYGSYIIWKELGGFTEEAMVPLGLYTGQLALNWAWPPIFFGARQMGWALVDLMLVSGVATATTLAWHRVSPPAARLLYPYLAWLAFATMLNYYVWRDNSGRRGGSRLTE

## CC[C@@H](C)N([11CH3])C(=O)c1cc2ccccc2c(-c2ccccc2Cl)n1
[1]
  logD: 3.97

## CC(=O)N(Cc1ccccc1O[11CH3])c1cnccc1Oc1ccccc1
[2]
  logD: 3.01
[3]
  Ki: 2200 pM

## COc1ccc(OCC[18F])c(CN(C(C)=O)c2cc(F)ccc2Oc2ccccc2)c1
[1]
  logD: 3.81

## COc1ccccc1CN(C(=O)C[18F])c1cnccc1Oc1ccccc1
[4]
  Ki: 180 pM
[5]
  Ki: 997 pM
[6]
  Ki: 300 pM
[7]
  logD: 4.01

## CCCN(CCC)C(=O)Cc1c(-c2ccc(OCC[18F])cc2)nc2c(Cl)cc(Cl)cn12
[1]
  logD: 3
